Laboratory results as given in patent US20150260740A1, “COMPOSITION FOR USE AS AN ABNORMAL COAGULATION CONTROL PLASMA IN IN VITRO ASSAYS” (GRIFOLS, S.A., priority 2014, published 2015).

Assays:
Assay type in all cases: biochemical
[1] = test system: citrated normal human plasma; test: prothrombin time (PT) haemostasis assay; details: for effect on percentage of PT activity versus plasma having no anticoagulant: anticoagulant added to normal plasma: ferulic acid 0.5%, 1%, 1.5%, heparin 0.1, 0.5, 1 IU/mL, EDTA 0.5, 1, 1.5 mg/mL, FIG. 1-3; for effect on PT assay: summary statement, added to normal plasma, concentration not stated (EDTA: at a certain concentration)
Procedure: (§1) To assess the effect of different anticoagulants in various haemostasis assays, different plasma compositions were prepared. Use was made of citrated normal human plasma (16 mM of citrate), stored at a temperature of below −70° C. and thawed in a bath at 37° C. HEPES was then added up to a final concentration of 40 mM and the pH was adjusted to between 7.4 and 7.6 using NaOH 1N. Various plasma compositions were prepared. No anticoagulant was added to the first composition, which was used as a control. Increasing concentrations of the anticoagulants being analysed were added to the others: ferulic acid (0.5% , 1% and 1.5%), heparin (0.1 IU/mL, 0.5 IU/mL and 1 IU/mL) and EDTA (0.5 mg/mL, 1 mg/mL, 1.5 mg/mL). Each plasma composition was analysed for the aforementioned PT, aPTT, TT and RT assays in a Q Haemostasis Analyzer (Diagnostic Grifols, Spain) using the reagents DG-PT, DG-APTT Synth, DG-TT L Human and GD-Fibroclotin of Diagnostic Grifols.
FIG. 1-3 show the results obtained in the PT assay with the various anticoagulants and plot the time obtained in the PT assay as a function of the concentration of the anticoagulant present in the plasma. The control (plasma having no anticoagulant) is shown by triangles and the compositions comprising ferulic acid, heparin and EDTA are shown by squares. […] On the other hand, ferulic acid and EDTA added to normal plasma do produce a reduction in the percentage of PT activity.

[2] = test system: citrated normal human plasma; test: activated partial thromboplastin time (aPTT) haemostasis assay; details: summary statement, added to normal plasma; concentration not stated (EDTA: at a certain concentration)
Procedure: as §1
The same plasmas prepared in Example 1 were tested in the aPTT assay (FIG. 4-6). […] In addition, the prolongation in the result of the assay is proportional to the amount of anticoagulant present in the plasma.

[3] = test system: citrated normal human plasma; test: thrombin time (TT) haemostasis assay; details: for effect on TT assay result versus plasma having no anticoagulant: anticoagulant added to normal plasma: ferulic acid 0.5%, 1%, 1.5%, heparin 0.1, 0.5, 1 IU/mL, EDTA 0.5, 1, 1.5 mg/mL, FIG. 7-9
Procedure: as §1
The same plasmas prepared in Example 1 were tested in the TT assay. FIG. 7-9 show the TT results obtained when testing the prepared plasmas.

[4] = test system: citrated normal human plasma; test: reptilase time (RT) haemostasis assay; details: for effect on RT assay result versus plasma having no anticoagulant: anticoagulant added to normal plasma: ferulic acid 0.5%, 1%, 1.5%, heparin 0.1, 0.5, 1 IU/mL, EDTA 0.5, 1, 1.5 mg/mL, FIG. 10-12; for effect on RT assay: summary statement, added to normal plasma, concentration not stated (EDTA: at a certain concentration)
Procedure: as §1
The same plasmas prepared in Example 1 were tested in the RT assay.

effect on RT assay result versus plasma having no anticoagulant [4]	effect on RT assay [4]	Molecule	effect on percentage of PT activity versus plasma having no anticoagulant [1]	effect on PT assay [1]	effect on aPTT assay [2]	effect on TT assay result versus plasma having no anticoagulant [3]	effect on TT assay ([3]; summary statement, added to normal plasma, EDTA at a certain concentration)
do produce an abnormal RT result	can prolong the RT assay	O=C(O)CN(CCN(CC(=O)O)CC(=O)O)CC(=O)O [EDTA, ethylenediaminetetraacetic acid]	produce a reduction in the percentage of PT activity that is proportional to the amount of anticoagulant present in the plasma	does not affect the results of PT, aPTT and TT assays, or does so very slightly	does not affect the results of PT, aPTT and TT assays, or does so very slightly	does not prolong the result of the assay	does not affect the results of PT, aPTT and TT assays, or does so very slightly
do produce an abnormal RT result	–	COc1cc(/C=C/C(=O)O)ccc1O [ferulic acid]	produce a reduction in the percentage of PT activity that is proportional to the amount of anticoagulant present in the plasma	–	–	do produce an abnormal TT	–

Molecule	effect on RT assay result versus plasma having no anticoagulant [4]	effect on RT assay [4]	effect on percentage of PT activity versus plasma having no anticoagulant [1]	effect on PT assay [1]	effect on aPTT assay [2]	effect on TT assay result versus plasma having no anticoagulant [3]	effect on TT assay ([3]; summary statement, added to normal plasma, EDTA at a certain concentration)
heparin	does not prolong the RT at any of the concentrations tested	does not prolong the RT assay	has no effect on the PT assay	does not affect the PT assay, or does so to a lesser extent	prolongs the aPTT assay	do produce an abnormal TT	–
